In patent US10364263B2, “Cyclic phosphates and cyclic phosphoramidates for the treatment of neurologic disorders” (Retrophin, Inc., priority 2015, dated 2019):
Like-named read-outs stand apart in the source and are kept apart here.

Key:
[1] = Stability in human hepatocytes; format: in vitro ADME; settings: for half-life at 5 µM: t1/2, Human Hepatocytes
Description: (§1) Stability in hepatocytes for select compounds disclosed in the application was evaluated in two species (mouse and human) according to the following procedure. Compounds and positive control samples were dissolved in 100% DMSO at 5 mM. Cryopreserved hepatocytes were thawed and resuspended in Hepatocyte Basal Medium (HBM-Lonza CC-3199) supplemented with CC-4182 (complete hepatocyte culture medium). Test compounds were diluted into cell suspension (1 million cells/ml) from the stock solutions to have a test compound concentration of 5 μM (0.1% DMSO). Incubation was performed in 24-well plates, at 37° C. in a DUBNOFF water bath, under low shaking. Each compound was tested at 6 time points, in duplicates (0, 15, 30, 60, 120 and 240 min). At each time point, an aliquot of 120 μl was taken and transferred to a 96-well deep plate. The reaction was stopped with the addition of one volume of 100% acetonitrile plus 0.1% formic acid and the appropriate internal standard. Then samples were centrifuged at 1100×g for 30 min at +4° C. and supernatants were transferred to a new 96-deepwell plate. Samples were evaporated under N2 and reconstituted in H2O/ACN 0.1% Formic Acid (98:2). Analysis was performed without a calibration curve (Acquity UPLC-Waters; Sciex API4000). Time 0 was obtained adding acetonitrile before addition of the test compound. […] The half-life (t1/2) expressed in hours is derived using Equation 1 as shown in Example 64.

[2] = Stability in mouse hepatocytes; format: in vitro ADME
Description: as §1

[3] = Permeability in porcine brain endothelial cell blood-brain barrier model; format: in vitro ADME; settings: pig (endothelial cells), co-cultured with rat astrocytes, pH 7.4, PBECs/As blood-brain barrier model, luminal to basal
Source text: Compounds disclosed herein show the potential to reach mammalian brain by crossing the blood-brain barrier (BBB) from systemic circulation. […] The porcine brain endothelial cell permeability assay is an in vitro BBB model to be used for the prediction of central nervous system (CNS) drug permeability in vivo and for ranking or prioritization of compounds according to their permeability. This system can also be used for mechanistic studies and drug delivery strategies via receptor-mediated transport (transcytosis). The system is a two-dimensional co-culture, non-contact model of two types of primary cells: primary brain endothelial cells obtained from fresh porcine brains, and primary rat astrocytes, obtained from neonatal rats. This ensures barrier formation and functional expression of key transporters.
The endothelial cells were cultured on rat-tail collagen type I and human fibronectin coated Transwell polycarbonate inserts (surface area 0.7 cm^2; pore size 0.4 μm) and the inserts were placed in 24-well plates containing confluent rat astrocytes. This system allows for the formation of a differentiated BBB model suitable for compound permeability in 10 days.
On the day of the experiment, culture medium was removed and cells were pre-incubated for 30 min with HBSS containing 20 mM Hepes pH 7.4 and 0.1% BSA. Donor volume (apical) was 400 μl and receiver volume (basal) 900 μl. Compounds were diluted in assay medium (at the desired concentration) and added to the luminal side (to mimic blood to brain passage). Transport was measured usually after 60 min by detecting the amount of compound from the basal (brain side). The integrity of the cell layers was assessed by measuring the transendothelial electrical resistance (TEER) and by monitoring FITC-dextran (40 KDa) permeation. Inserts with TEER values […] were selected for permeability studies. As FITC-dextran cannot freely permeate lipophilic barriers, a high degree of FITC-dextran transport indicates poor integrity of the cell layer and wells with high FITC-dextran permeability were excluded. FITC-dextran was included as internal control in each insert used for permeability studies. Fluorescence was measured using a fluorimetric detector. Radioactivity was measured by scintillation counting. For LC-MS/MS analysis, aliquots (200 μl) from the basal compartment were diluted with an equal volume of 100% acetonitrile containing 0.1% formic acid, centrifuged to remove cell debris, and evaporated under N2. After reconstitution, samples were analyzed by LC-MS/MS. Mass balance was determined considering the amount of compound recovered in the donor and receiver chamber at the end of the assay relative to the amount added to the donor chamber at time 0.
Permeability was defined as the apparent permeability coefficient (Papp), which is a measure of the appearance rate of the compound in the receiver chamber, expressed in cm/s. Papp is calculated according the following equation: Papp[cm/sec]=Vd*ΔMr/A*Md*Δt, Equation 2: where
Vd=volume in the donor compartment in cm^3 or mL;
ΔMr=total amount of compound in the receiver compartment after t seconds;
Md=donor amount (added at time 0)
Δt=time measured in seconds
A=filter area in cm^2 (for 24 well plate, A=0.7 cm^2).
To correct for the contribution of filter and substrate, Papp was also determined for the cell-free system. Permeability of the endothelial cell layer was determined using the following equation: […], Equation 3: where
Ptotal=the P of the total system,
Pf=P for the cell-free filter, and
Pe=P for the endothelial cell layer alone. In this equation, the total resistance of the system towards passage of a substance is additively composed of two […] resistances: that of the cell monolayer and that of the filter.

[4] = system: PANK2 silenced human neuroblastoma IMR32 cells (PANK2−/−); assay: Coenzyme A assay in PANK2 silenced cells (LC-MS quantification of free CoA); format: cell-based; settings: compound added twice (24 h + 24 h), relative to 0.1% DMSO controls
Method in brief: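 Free intracellular CoA was measured by positive-mode LC-MS/MS of 20% TFA extracts, taking 2 μl per 10^6 cells as intracellular volume. Cells were IMR32 with stable lentiviral PANK2 knockdown, dosed twice 24 h apart (48 h total, 0.1% DMSO). Output is fold increase over vehicle.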

[5] = Chemical stability in aqueous solution (phosphate buffered saline, NMR)
Description: To measure chemical stability in aqueous solution, the half-life (t1/2), or time needed for the concentration to decrease by half, was determined for select compounds in phosphate buffered saline solution. Compounds were dissolved in a solution containing 10 mM phosphate buffer (pH 7.5) and 5% of D2O to a final concentration of −1 mM. All spectra were obtained at 37° C. on a Bruker Avance 600 NMR spectrometer equipped with an inverse broad-band probe with z-gradients. Data were obtained every 15 min for a total time period of 4 h or longer, according to the observed stability. ^31P NMR was performed at 242.55 MHz, with gated decoupling of the protons. An observation frequency range of 14619.9 Hz and 32 K complex data points were used for acquisition. A pulse angle of 90° and a 4-sec pulse cycle were utilized. Thirty-two accumulations were obtained before Fourier transformation of the free induction decay. ^1H NMR spectra were acquired using the 1DNOESY experiment with water presaturation for better solvent suppression. An observation frequency range of 12019.23 Hz, a 10-sec pulse cycle, and 32 K complex data points were used for acquisition. Sixty-four scans were added prior to Fourier transformation. Integral data were obtained using the TopSpin software.
Stability was determined based on analysis of disappearance of the compounds as a function of incubation time. Quantification of test compounds was measured as a peak area relative to an internal standard. The elimination constant, k, was calculated by plotting mean disappearance values on a semi-logarithmic scale and fitting with a best fit linear regression. The half-life (t1/2) expressed in hours was derived using Equation 1: t1/2=ln2/(−k). Equation 1:

[6] = Stability in mouse plasma; format: in vitro ADME; settings: mouse, plasma; for t1/2, Mouse Plasma, Diastereoisomer B: 3 µM
Method in brief: (§2)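 Test compound at 3 μM (0.1% DMSO) was incubated in mouse or human plasma at 37 °C and sampled in duplicate at 0, 10, 20, 30, 40 and 60 min. Reactions were stopped with acetonitrile/formic acid containing internal standard. Remaining parent was measured by UPLC-MS/MS without a calibration curve.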

[7] = Stability in human plasma; format: in vitro ADME; settings: human, plasma, 37° C.
Method in brief: as §2

[8] = t1/2, Mouse Hepatocytes, Diastereoisomer A
[9] = Diastereoisomer A, read-out: Papp Diastereoisomer A
[10] = Diastereoisomer A (upfield shift in 31P NMR), read-out: t1/2, Human Plasma, Diastereoisomer A (converted)
[11] = t1/2, Mouse Hepatocytes, Diastereoisomer B
[12] = Diastereoisomer B, read-out: t1/2, Human Plasma, Diastereoisomer B (converted)

Row | Compound | half-life at 5 µM ([1]; Diastereoisomer A) [min] | half-life at 5 µM [2, 8] [min] | Papp A→B at 60 min [3, 9] [×10⁻⁶ cm/s] | PANK2−/− CoA (Fold Increase): fold increase in Coenzyme A (CoA) levels relative to controls [4] [Fold Increase] | further results
1 | COC(=O)CCNC(=O)[C@@H]1O[P@](=O)(OCc2ccccc2)OCC1(C)C [compound 54, methyl 3-((2R,4R)-2-(benzyloxy)-5,5-dimethyl-2-oxido-1,3,2-dioxaphosphinane-4-carboxamido)propanoate] | < 15 | < 15 | 18.1 |  | 
2 | CC(C)OC(=O)OCO[P@@]1(=O)OCC(C)(C)[C@H](C(=O)NCCC(=O)O)O1 [2-130, 3-((2S,4R)-2-(((isopropoxycarbonyl)oxy)methoxy)-5,5-dimethyl-2-oxido-1,3,2-dioxaphosphinane-4-carboxamido)propanoic acid] |  |  | 1.84 | 43.5 | 
3 | COC(=O)CCNC(=O)[C@@H]1O[P@@](=O)(OCCC(C)C)OCC1(C)C [compound 50, methyl 3-((2S,4R)-2-(isopentyloxy)-5,5-dimethyl-2-oxido-1,3,2-dioxaphosphinane-4-carboxamido)propanoate] |  |  |  |  | half-life at 1 mM ([5]; pH 7.5, t1/2 (h) Diastereoisomer A, 10 mM phosphate buffer pH 7.5, 37° C., Diastereoisomer A = upfield shift in the 31P NMR): > 80 h
4 | COC(=O)CCNC(=O)[C@@H]1OP(=O)(NCCc2ccncc2)OCC1(C)C (stereo partly drawn) [compound 111, methyl 3-((4R)-5,5-dimethyl-2-oxido-2-((2-(pyridin-4-yl)ethyl)amino)-1,3,2-dioxaphosphinane-4-carboxamido)propanoate] |  |  | 0.7 |  | half-life ([1]; Diastereoisomer A (upfield shift in 31P NMR), 5 μM, 1 million cells/ml, 37° C., human hepatocytes, read-out: t1/2, Human Hepatocytes, Diastereoisomer A (converted)): 171 min; half-life at 5 µM ([2]; Diastereoisomer A (upfield shift in 31P NMR), 5 μM, 1 million cells/ml, 37° C., mouse hepatocytes, read-out: t1/2, Mouse Hepatocytes, Diastereoisomer A (converted)): 28.8 min
5 | COC(=O)CCNC(=O)[C@@H]1OP(=O)(O)OCC1(C)C [compound 55, methyl 3-((4R)-2-hydroxy-5,5-dimethyl-2-oxido-1,3,2-dioxaphosphinane-4-carboxamido)propanoate] |  |  |  | 1.92 | half-life at 1 mM ([5]; pH 7.5, t1/2 (h), pH 7.5, 37° C., compound not chiral at phosphorous, one value spanning both columns): > 60 h
6 | COC(=O)CCNC(=O)[C@@H]1O[P@@](OCCc2ccccc2)OCC1(C)C [compound 58, methyl 3-((2S,4R)-5,5-dimethyl-2-phenethoxy-1,3,2-dioxaphosphinane-4-carboxamido)propanoate] |  |  |  |  | half-life at 1 mM ([5]; pH 7.5): > 80 h
7 | COC(=O)CCNC(=O)[C@@H]1O[P@@](=O)(OCC(F)(F)F)OCC1(C)C [2-138, methyl 3-((2R,4R)-5,5-dimethyl-2-oxido-2-(2,2,2-trifluoroethoxy)-1,3,2-dioxaphosphinane-4-carboxamido)propanoate] | > 240 |  | 15.6 | 1.13 | 
8 | COC(=O)CCNC(=O)[C@@H]1O[P@@](=O)(OCOC(=O)C(C)(C)C)OCC1(C)C (single isomer, unassigned) [Compound No. 90] | < 15 | < 15 |  | 286.0 | half-life at 3 µM [6]: < 9.6 min; half-life at 3 µM [7, 10]: 45.6 min
9 | COC(=O)CCNC(=O)[C@@H]1O[P@@](=O)(OCN2C(=O)c3ccccc3S2(=O)=O)OCC1(C)C (single isomer, unassigned) [Compound No. 2-126] |  |  | 2.74 | 138.56 | 
10 | COC(=O)CCNC(=O)[C@@H]1OP(=O)(N[C@H](C(=O)OCc2ccccc2)C(C)C)OCC1(C)C (stereo partly drawn) [compound 13, benzyl ((4R)-4-((3-methoxy-3-oxopropyl)carbamoyl)-5,5-dimethyl-2-oxido-1,3,2-dioxaphosphinan-2-yl)-L-valinate] | 31.8 | 28.2 |  | 1 | half-life at 5 µM ([1]; Diastereoisomer B): < 15 min; half-life at 5 µM [2, 11]: 24 min; half-life at 3 µM [6]: < 9.6 min; t1/2, Mouse Plasma, Diastereoisomer B [6]: <9.6 min; half-life at 3 µM [7, 10]: > 60 min; half-life at 3 µM [7, 12]: > 60 min
11 | CCc1cc(C(=O)OCO[P@]2(=O)OCC(C)(C)[C@H](C(=O)NCCC(=O)OC)O2)n(C)n1 (single isomer, unassigned) [Compound No. 2-129] |  |  |  | 88.66 | half-life at 5 µM ([1]; Diastereoisomer B): < 15 min; half-life at 5 µM [2, 11]: < 15 min; Papp A→B at 60 min ([3]; Diastereoisomer B, read-out: Papp Diastereoisomer B): 11.5 ×10⁻⁶ cm/s
12 | COC(=O)CCNC(=O)[C@@H]1OP(=O)(N[C@@H](C)C(=O)OC[C@H]2CCC(=O)N2)OCC1(C)C (stereo partly drawn) [compound 23, methyl 3-((4R)-5,5-dimethyl-2-oxido-2-(((S)-1-oxo-1-(((R)-5-oxopyrrolidin-2-yl)methoxy)propan-2-yl)amino)-1,3,2-dioxaphosphinane-4-carboxamido)propanoate] | > 240 | 70.8 |  | 2.08 | half-life at 5 µM ([1]; Diastereoisomer B): > 240 min; half-life at 5 µM [2, 11]: 33 min; half-life at 3 µM [6]: < 9.6 min; t1/2, Mouse Plasma, Diastereoisomer B [6]: <9.6 min; half-life at 3 µM [7, 10]: < 9.6 min; half-life at 3 µM [7, 12]: 57.6 min
13 | CCc1cc(C(=O)OCO[P@@]2(=O)OCC(C)(C)[C@H](C(=O)NCCC(=O)OC)O2)n(C)n1 (single isomer, unassigned) [Compound No. 2-127] | 17.4 | < 15 | 11.8 | 14.41 | 
